Measurements reported in patent US7908091B2, “Methods of predicting and monitoring tyrosine kinase inhibitor therapy” (Prometheus Laboratories Inc., priority 2006, dated 2011).
Read-outs that look alike come from different tables or passages of the source.

How the values were obtained:
[1] = test system: refractory ovarian cancer; conditions: in vivo; cited from earlier work
[2] = test system: EGF-dependent cell proliferation; conditions: cited from earlier work
[3] = test system: advanced stage III or IV non-small cell lung cancer; conditions: progressive disease after standard chemotherapies; cited from earlier work
[4] = human, in vivo; cited from earlier work
Akt = conditions: gefitinib concentration of 10 μM, data from FIG. 3 of Moasser et al., cited from earlier work
[5] = test system: non-small cell lung cancer; conditions: patients with refractory non-small cell lung cancer in whom standard therapy failed; cited from earlier work
BT474 = assay: gefitinib sensitivity (IC50) of cancer cell line
MDA-MB-361 = assay: gefitinib sensitivity (IC50) of cancer cell line
SkBr3 = assay: gefitinib sensitivity (IC50) of cancer cell line
MDA-MB-453 = assay: gefitinib sensitivity (IC50) of cancer cell line
A431 = assay: gefitinib sensitivity (IC50) of cancer cell line
SkOv3 = assay: gefitinib sensitivity (IC50) of cancer cell line
DU145 = assay: gefitinib sensitivity (IC50) of cancer cell line
[6] = test system: hormone refractory prostate cancer; conditions: in vivo; cited from earlier work
[7] = test system: refractory acute myeloid leukemia; conditions: twice weekly administration; cited from earlier work
[8] = test system: prostate cancer, renal cell carcinoma, or multiple myeloma; conditions: in vivo; cited from earlier work
advanced kidney cancer = conditions: after a 12-week treatment period, compared to the placebo group; cited from earlier work
renal cell carcinoma = conditions: human, in vivo; cited from earlier work

C=CC(=O)Nc1cc2c(Nc3ccc(F)c(Cl)c3)ncnc2cc1OCCCN1CCOCC1 [canertinib]
antitumor activity [1]: minimal antitumor activity

C#Cc1cccc(Nc2ncnc3cc(OCCOC)c(OCCOC)cc23)c1 [erlotinib]
inhibits EGF-dependent cell proliferation [2]: nanomolar concentrations | median survival [3]: 8.4 months | response rate [3]: 12% | most common / toxic side-effects [4]: an acneiform skin rash and diarrhea

COc1cc2ncnc(Nc3ccc(F)c(Cl)c3)c2cc1OCCCN1CCOCC1 [gefitinib]
Akt (level of Akt activity) (Akt; A431): 2 | Akt (level of Akt activity) (Akt; A549): 85 | Akt (level of Akt activity) (Akt; BT474): 10 | Akt (level of Akt activity) (Akt; Colo205): 105 | Akt (level of Akt activity) (Akt; DU145): 35 | Akt (level of Akt activity) (Akt; DU4475): 105 | Akt (level of Akt activity) (Akt; MCF-7): 70 | Akt (level of Akt activity) (Akt; MDA-MB-361): 20 | Akt (level of Akt activity) (Akt; MDA-MB-453): 40 | Akt (level of Akt activity) (Akt; MDA-MB-468): 90 | Akt (level of Akt activity) (Akt; MDA-MIB-231): 70 | Akt (level of Akt activity) (Akt; PC3): 55 | Akt (level of Akt activity) (Akt; SkBr3): 2 | Akt (level of Akt activity) (Akt; SkOv3): 40 | Akt (level of Akt activity) (Akt; T24): 90 | Akt (level of Akt activity) (Akt; T47D): 85 | Akt (level of Akt activity) (Akt; ZR75): 85 | response rate [5]: about 10% | CATAG (gefitinib-sensitive) (BT474): 1 (An IC50 <9 μM was considered gefitinib-sensitive (“CATAG” = 1)) | CATAG (gefitinib-sensitive) (MDA-MB-361): 1 (An IC50 <9 μM was considered gefitinib-sensitive (“CATAG” = 1)) | CATAG (gefitinib-sensitive) (SkBr3): 1 (An IC50 <9 μM was considered gefitinib-sensitive (“CATAG” = 1)) | CATAG (gefitinib-sensitive) (MDA-MB-453): 1 (An IC50 <9 μM was considered gefitinib-sensitive (“CATAG” = 1)) | CATAG (gefitinib-sensitive) (A431): 1 (An IC50 <9 μM was considered gefitinib-sensitive (“CATAG” = 1)) | CATAG (gefitinib-sensitive) (SkOv3): 1 (An IC50 <9 μM was considered gefitinib-sensitive (“CATAG” = 1)) | CATAG (gefitinib-sensitive) (DU145): 1 (An IC50 <9 μM was considered gefitinib-sensitive (“CATAG” = 1))

CS(=O)(=O)CCNCc1ccc(-c2ccc3ncnc(Nc4ccc(OCc5cccc(F)c5)c(Cl)c4)c3c2)o1 [lapatinib]
most common / toxic side-effects [4]: diarrhea and skin rash

Cc1oncc1C(=O)Nc1ccc(C(F)(F)F)cc1 [leflunomide]
patients with a decrease in prostate specific antigen of greater than 50% [6]: about 7% | patients with partial responses [6]: less than 5% | most common / toxic side-effects [4]: asthenia, nausea, anorexia, and anemia

Cc1cc(C)c(/C=C2\C(=O)Nc3ccccc32)[nH]1 [semaxinib]
complete responses [7]: 1 | partial responses [7]: 7 | objective response rates [8]: minimal objective response rates | most common / toxic side-effects [4]: headache, nausea, vomiting, asthenia, pain at the infusion site, phlebitis, change in voice, and fever

CNC(=O)c1cc(Oc2ccc(NC(=O)Nc3ccc(Cl)c(C(F)(F)F)c3)cc2)ccn1 [sorafenib]
patients whose disease did not progress (advanced kidney cancer): statistically higher percentage of patients whose disease did not progress | most common / toxic side-effects [4]: skin reactions such as hand-foot syndrome and rash, diarrhea, fatigue, weight loss, and hypertension

Clc1ccc(Nc2nnc(Cc3ccncc3)c3ccccc23)cc1 [vatalanib]
patients with minor responses (renal cell carcinoma): 15% | patients with partial responses (renal cell carcinoma): 5%
